Experimental data published in US20200207830A1, “TREM2 MUTANTS RESISTANT TO SHEDDASE CLEAVAGE” (NOVARTIS AG, priority 2017, published 2020).
No end group written: not given here.

Columns and labels:
ADAM10 [1] = molecular target: T1, ADAM10 (Homo sapiens, UniProt O14672); test: In vitro inhibition of recombinant ADAM10; type: biochemical; conditions: Hepes buffer pH 7.5
T1 sequence (O14672 214-748): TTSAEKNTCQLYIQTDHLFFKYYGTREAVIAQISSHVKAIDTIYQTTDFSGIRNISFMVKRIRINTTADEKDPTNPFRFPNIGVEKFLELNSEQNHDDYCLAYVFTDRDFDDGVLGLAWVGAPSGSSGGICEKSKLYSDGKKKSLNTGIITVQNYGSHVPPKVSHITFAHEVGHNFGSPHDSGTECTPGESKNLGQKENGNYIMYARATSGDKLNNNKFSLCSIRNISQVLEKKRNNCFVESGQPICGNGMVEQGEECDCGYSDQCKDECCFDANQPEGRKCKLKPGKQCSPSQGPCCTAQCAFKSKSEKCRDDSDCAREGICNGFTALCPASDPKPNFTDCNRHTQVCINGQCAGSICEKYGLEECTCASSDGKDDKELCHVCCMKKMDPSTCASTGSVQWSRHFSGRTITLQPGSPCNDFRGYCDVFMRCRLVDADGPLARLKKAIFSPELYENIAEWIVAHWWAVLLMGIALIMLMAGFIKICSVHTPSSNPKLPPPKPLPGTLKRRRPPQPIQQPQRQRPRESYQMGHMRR
Protocol: FIG. 2E is a line graph showing inhibition of recombinant ADAM10 and ADAM17 by DPC333 and GI254023 in vitro in Hepes buffer at pH 7.5.
Enzyme selectivity of the ADAM inhibitors applied was determined in an in vitro cleavage assay and both inhibitors were used over a broad concentration range to investigate effects on TREM2 cell surface expression in CHO-hDAP12-hTREM2 cells and human M2A macrophages.

CHO-hDAP12-hTREM2 cells = test: Live cell imaging of TREM2 cell surface expression in CHO-hDAP12-hTREM2 cells; type: cell-based; conditions: overnight treatment
Description: (§1) CHO cells were transfected to co-express hDAP12 and hTREM2 using Lipofectamine LTX reagent (Thermofischer) according to the manufacturer's recommendations. One positive clone was selected and designated CHO-hDAP12-hTREM2. Human M2A macrophages were obtained from buffy coat using a negative isolation kit for monocytes (Stem cell technologies) and differentiated for 5 days in RPMI1640 medium with Glutamax (Gibco) supplemented with 10% FBS (Gibco), PenStrep (Gibco), 1% Sodium Pyruvate (Gibco), 0.025 M HEPES Buffer (Gibco), 0.05 mM β-mercaptoethanol (Gibco), M-CSF (40 ng/ml) and IL-4 (50 ng/ml). Cell surface TREM2 was detected by FACS as described above.
(§2) Human M2A macrophages or CHO-hDAP12-hTREM2 were seeded on 384 well plates (Greiner) and treated with ADAM inhibitors DPC333 or GI254023 at concentrations indicated in the figures. 16 h later cells were treated for 30 minutes with PMA (50 ng/ml) or 0.1% DMSO for 30 minutes. Plates were put on ice and stained with goat anti human TREM2 antibody AF1828 (R&D Systems) or isotype control and Hoechst stain followed by incubation with the secondary Alexa Fluor 488 conjugated anti goat antibody (Molecular Probes). Images were acquired using an InCe112000 analyzer (GE Healthcare). For image quantification the free open source software CellProfiler was applied.
To determine the contribution of ADAM10 or ADAM17 to shedding of TREM2 ectodomain, selective inhibitors were identified: DPC333 (Qian et al., Drug Metabolism and Disposition: the Biological Fate of Chemicals 35, 1916-1925, 2007) and GI254023 (Hundhausen et al., Blood. 2003; 102:1186-1195). DPC333 and GI254023 were characterized for inhibitory selectivity towards ADAM10 and ADAM17. […] Using live cell imaging, cell surface expression of hTREM2 was assessed in CHO-hDAP12-hTREM2 cells after overnight treatment of the cells with the two ADAM inhibitors under conditional shedding conditions (FIG. 2A) or after treatment of the cells with PMA (FIG. 2B). […] This effect might be attributed to true ADAM10 inhibition or it might be caused by unspecific inhibition of ADAM17 by GI254023 when used at high concentrations. […] To get closer to a physiological cellular system, a similar experiment was conducted in human M2A macrophages differentiated from CD^14+ human monocytes (FIGS. 2C-2D).

human M2A macrophages = test: Live cell imaging of TREM2 cell surface expression in human M2A macrophages; type: cell-based
Description: as §1, §2
To determine the contribution of ADAM10 or ADAM17 to shedding of TREM2 ectodomain, selective inhibitors were identified: DPC333 (Qian et al., Drug Metabolism and Disposition: the Biological Fate of Chemicals 35, 1916-1925, 2007) and GI254023 (Hundhausen et al., Blood. 2003; 102:1186-1195). DPC333 and GI254023 were characterized for inhibitory selectivity towards ADAM10 and ADAM17. […] Using live cell imaging, cell surface expression of hTREM2 was assessed in CHO-hDAP12-hTREM2 cells after overnight treatment of the cells with the two ADAM inhibitors under conditional shedding conditions (FIG. 2A) or after treatment of the cells with PMA (FIG. 2B). […]

ADAM17 [2] = molecular target: T2, ADAM17 (Homo sapiens, UniProt P78536); test: In vitro inhibition of recombinant ADAM17; type: biochemical; conditions: Hepes buffer pH 7.5
T2 sequence (P78536 215-824): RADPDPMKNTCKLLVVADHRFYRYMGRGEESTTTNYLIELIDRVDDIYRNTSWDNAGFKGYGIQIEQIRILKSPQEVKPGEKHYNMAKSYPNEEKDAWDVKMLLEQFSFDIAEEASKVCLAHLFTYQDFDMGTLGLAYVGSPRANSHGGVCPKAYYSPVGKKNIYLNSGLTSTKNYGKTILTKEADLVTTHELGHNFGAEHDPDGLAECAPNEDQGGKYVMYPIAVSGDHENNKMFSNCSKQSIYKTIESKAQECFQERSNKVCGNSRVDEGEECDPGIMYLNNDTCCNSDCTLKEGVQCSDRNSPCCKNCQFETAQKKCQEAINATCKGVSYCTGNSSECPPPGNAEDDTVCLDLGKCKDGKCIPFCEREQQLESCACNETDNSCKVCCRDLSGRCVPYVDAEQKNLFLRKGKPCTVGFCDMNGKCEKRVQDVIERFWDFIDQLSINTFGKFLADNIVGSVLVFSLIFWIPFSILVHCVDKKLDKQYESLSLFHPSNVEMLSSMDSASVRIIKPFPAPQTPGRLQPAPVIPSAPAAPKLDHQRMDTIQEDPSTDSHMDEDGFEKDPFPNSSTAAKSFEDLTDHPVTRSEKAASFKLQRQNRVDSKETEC

THP1 cells = test: Cell surface TREM2 and sTREM2 in THP1 CRISPR cell clones; type: cell-based, human
Protocol: THP1 cells stably coexpressing Cas9 and a blasticidin resistance gene delivered by lentivirus were cultured in RPMI medium containing 10% FBS, 1% L-glutamine, 1% pen/strep, and 10 μg/ml of blasticidin (Thermo Fisher Scientific). The cells were cultured at 37° C. in 5% CO2 atmosphere.
THP1-Cas9 cells were infected with lentiviruses expressing the puromycin resistance gene and sgRNAs (for vector design, see Hoffman, Proceedings of the National Academy of Sciences of the United States of America 111, 3128-3133, 2014) targeting either ADAM10 ([…], SEQ ID NO: 75) or ADAM17 ([…], SEQ ID NO: 76). Lentiviral packaging was carried out in HEK293T cells as described previously. Briefly, 30 μL of lentiviral sgRNA supernatant was added to 1×10^6 THP1-Cas9 cells in 2 ml medium containing 5 μg/ml polybrene (Sigma) and spun at 300 g for 90 minutes in a 6-well plate. After 24 hours the cells were spun down and resuspended in fresh culture medium containing 1.5 μg/mL puromycin. After 4 weeks of weekly media changes, genomic DNA was isolated using a Quick-gDNA miniprep kit (Zymo Research) to assess the insertions and deletions (indels) present in the pool by next-generation sequencing (NGS). To isolate clones containing only frameshift indels, cells were plated at limiting dilution into 96-well plates. Upon expansion of the clones, they were assayed by NGS and clones containing only frameshift alleles were selected for downstream assays.
To confirm the results in Example 2, a genetic approach was used to further investigate the contribution of ADAM10/17 to TREM2 shedding. Human monocytic THP1 cells were chosen as model system which endogenously expresses TREM2. Employing the CRISPR/CAS9 technology, clones were generated that lack expression of ADAM10 (AD10 H4) or ADAM17 (AD17 G12) as well as a control cell line (Ctrl gRNA). Absence of gene products was verified by FACS analysis or Western blot (FIGS. 3C-3D).
Cell surface expressed TREM2 and sTREM2 were assessed in the three cell lines in the same experiment using three different conditions: no treatment reflecting constitutive shedding, PMA treatment that maximally activates shedding, and finally PMA and DPC333 treatment. […] Maximally activating sheddases with PMA leads to a strong reduction of cell surface TREM2 both in the control cell line and in the ADAM10 deficient clone. This is reflected in a strong increase in sTREM2. In the ADAM17 deficient cell line, PMA treatment also leads to a reduction of cell surface TREM2, but to a smaller extent than in the control CRISPR clone. Also, the increase in sTREM2 is smaller compared to PMA treated control CRISPR clone and ADAM10 deficient clone. However, the cleavage of TREM2 in the AD17 G12 clone in the presence of PMA must be caused by a sheddase other than ADAM17. […]

ADAM17 [3] = molecular target: T2, ADAM17; test: In vitro cleavage of TREM2 stalk region peptides by ADAM17 (HPLC); type: biochemical; conditions: neutral buffer, up to 48 hours, HPLC of parent peptide
Description: FIGS. 5A-5E show ADAM17 cleaves TREM2 stalk region peptides in vitro at H157-S158. […] All peptides were obtained with an N-terminal 7-methoxycoumarin (Mca) fluorescent tag […]. Underlined amino acids indicates main sheddase cleavage site. AA112-171: SEQ ID NO: 24; Peptide 1: SEQ ID NO: 25; Peptide 2: SEQ ID NO: 26; Peptide 3: SEQ ID NO: 27; Peptide la: SEQ ID NO: 28; Peptide 2a: SEQ ID NO: 29; Peptide 4: SEQ ID NO: 30; Peptide 5: SEQ ID NO: 31; Peptide 6: SEQ ID NO: 32. […] FIG. 5C discloses SEQ ID NOS 83, 51 and 84, respectively, in order of appearance.
(§3) In order to identify the cleavage site of ADAM10/ADAM17 within the stalk region of TREM2, in vitro cleavage patterns of stalk region-derived peptides were investigated and confirmed the cleavage site by determination of the C-terminus of shed soluble TREM2 from cell culture supernatants. A series of peptides covering the stalk region were designed for in vitro investigation of ADAM10/ADAM17 cleavage (FIG. 5A). All peptides were obtained with an N-terminal 7-methoxycoumarin (Mca) fluorescent tag. Peptides 1-3, 1a and 2a were incubated with ADAM17 in neutral buffer for up to 48 hours, and reaction was followed by HPLC analysis of aliquots withdrawn at different time points.
(§4) HPLC-MS analysis of the reaction mixture of peptide3/ADAM17 identified one major product, SISRSLLEGEIPFP-NH2(SEQ ID NO: 51), together with 2 minor cleavage products (FIGS. 5B-5C). […] At these time points there was essentially no substrate left. Therefore, it can be concluded that the minor cleavage products originate from secondary ADAM17 cleavage of the main product.

ADAM10 [4] = molecular target: T1, ADAM10; test: In vitro cleavage of TREM2 stalk region peptides by ADAM10; type: biochemical; conditions: data not shown
Description: as §3, §4
Recent literature gave insight into ADAM10 and ADAM17 preferences for the cleavage of peptides and proteins (Caescu et al., Biochem J 424, 79-88, 2009; Tucher et al., J Proteome Res 13, 2205-2214, 2014). […] After searching for the least preferred amino acids in substrates of ADAM10 and 17, isoleucine was identified as never occurring in P1 of ADAM substrates, and a very low preference for aspartate or proline in P1′ and in P2′. […] In these peptides the H-SI cleavage site was replaced with IPP, IPD, and IDP, respectively.

[5] = conditional shedding (steady state) conditions, FIG. 2A
[6] = then PMA-treated cells, FIG. 2B

Row | Compound | IC50 (ADAM10 [1]) | TREM2 cell surface levels (CHO-hDAP12-hTREM2 cells; [5]) | TREM2 cell surface levels (CHO-hDAP12-hTREM2 cells; [6]) | TREM2 cell surface expression (human M2A macrophages; additional PMA treatment, FIG. 2D) | TREM2 cell surface expression (human M2A macrophages; steady-state shedding, FIG. 2C) | IC50 (ADAM17 [2]) | TREM2 cell surface levels (THP1 cells; co-treatment with PMA and DPC333, AD10 H4 cells (ADAM10 knockout)) | TREM2 cell surface levels (THP1 cells; co-treatment with PMA and DPC333, AD17 G12 clone (ADAM17 knockout)) | TREM2 cell surface levels (THP1 cells; co-treatment with PMA and DPC333, Ctrl gRNA cells) | sTREM2 (THP1 cells; co-treatment with PMA and DPC333 compared to PMA treatment only, AD17 G12 clone) | Cleavage by ADAM17 (ADAM17 [3]) | Cleavage by ADAM10 (ADAM10 [4])
1 | Cc1cc(COc2ccc([C@]3(N)CCN([C@H](CC(C)C)C(=O)NO)C3=O)cc2)c2ccccc2n1 [DPC333] | 5.3 nM | dose-dependently increases | dose-dependently increases | increases TREM2 cell surface expression dose-dependently | increases TREM2 cell surface expression dose-dependently | < 0.6 nM | restored | smaller effects | restored | strongly reduced |  | 
2 | Peptide 6: TREM2 stalk peptide, H-SI cleavage site replaced with IDP; SEQ ID NO: 32 (DAHVEIDPSRSLLEGEIPFP) |  |  |  |  |  |  |  |  |  |  | resistant to in vitro cleavage | slowly cleaved
3 | Peptide 3: TREM2 stalk region derived synthetic peptide with 7-methoxycoumarin (Mca) tag; SEQ ID NO: 27 (DAHVEHSISRSLLEGEIPFP; also: 7-methoxycoumarin (Mca) tag, position not given here) |  |  |  |  |  |  |  |  |  |  | Significant cleavage | very similar cleavage pattern
4 | Peptide 5: TREM2 stalk peptide, H-SI cleavage site replaced with IPD; SEQ ID NO: 31 (DAHVEIPDSRSLLEGEIPFP) |  |  |  |  |  |  |  |  |  |  | resistant to in vitro cleavage | slowly cleaved
5 | CNC(=O)[C@@H](NC(=O)[C@H](CCCc1ccccc1)[C@H](C)N(O)C=O)C(C)(C)C [GI254023, (2R,3 S)-3-(formyl-hydroxyamino)-2-(3-phenyl-1-propyl) butanoic acid [(1S)-2,2-dimethyl-1-methylcarbamoyl-1-propyl] amide] | 1.5 nM | limited effect | complete lack of effect |  | small effect | 196 nM |  |  |  |  |  | 
